Reference: the NIST ThermoML archive (doi:10.1007/s10765-010-0773-1)

Assay: xn = mol fraction of the nth substance listed
Conditions: 101 kPa, Liquid; for mass density: Vibrating tube method; for speed of sound: Pulse-echo method

BrCBr [dibromomethane] + CCCCCCC
Conditions	mass density [kg/m3]	speed of sound [m/s]
288.15 K, x1 = 0.1019	779.65	–
288.15 K, x1 = 0.1838	861.49	–
288.15 K, x1 = 0.2536	937.65	–
288.15 K, x1 = 0.3055	998.83	–
288.15 K, x1 = 0.4064	1130.32	–
288.15 K, x1 = 0.5029	1274.13	–
288.15 K, x1 = 0.6023	1444.97	–
288.15 K, x1 = 0.6525	1541.56	–
288.15 K, x1 = 0.7016	1644.24	–
288.15 K, x1 = 0.8003	1878.69	–
288.15 K, x1 = 0.8961	2149.52	–
288.15 K, x1 = 1	2509.06	–
292.87 K, x1 = 1	–	960.63
292.88 K, x1 = 0.9019	–	946.13
292.89 K, x1 = 0.1062	–	1104
292.89 K, x1 = 0.2032	–	1066.3
292.89 K, x1 = 0.304	–	1032.1
292.9 K, x1 = 0.405	–	1002.4
292.9 K, x1 = 0.4998	–	979.49
292.91 K, x1 = 0.7043	–	946.92
292.91 K, x1 = 0.8031	–	941.84
292.92 K, x1 = 0.6048	–	959.47
293.14 K, x1 = 0.2536	932.03	–
293.14 K, x1 = 0.4064	1123.66	–
293.14 K, x1 = 0.6023	1436.76	–
293.14 K, x1 = 0.7016	1635.05	–
293.15 K, x1 = 0.1019	774.91	–
293.15 K, x1 = 0.1838	856.29	–
293.15 K, x1 = 0.3055	992.87	–
293.15 K, x1 = 0.5029	1266.74	–
293.15 K, x1 = 0.6525	1532.85	–
293.15 K, x1 = 0.8003	1868.4	–
293.15 K, x1 = 0.8961	2138.01	–
293.15 K, x1 = 1	2496.03	–
298.14 K, x1 = 0.1838	851.06	–
298.14 K, x1 = 0.2536	926.36	–
298.14 K, x1 = 0.3055	986.88	–
298.14 K, x1 = 0.6023	1428.45	–
298.14 K, x1 = 0.7016	1625.79	–
298.14 K, x1 = 0.8961	2126.46	–
298.15 K, x1 = 0.1019	770.15	–
298.15 K, x1 = 0.2032	–	1045.8
298.15 K, x1 = 0.4064	1116.96	–
298.15 K, x1 = 0.5029	1259.28	–
298.15 K, x1 = 0.6525	1524.09	–
298.15 K, x1 = 0.8003	1858.05	–
298.15 K, x1 = 0.9019	–	931.96
298.15 K, x1 = 1	2482.97	947.15
298.16 K, x1 = 0.1062	–	1082.4
298.16 K, x1 = 0.304	–	1012.7
298.17 K, x1 = 0.4998	–	962
298.17 K, x1 = 0.8031	–	926.99
298.18 K, x1 = 0.405	–	984.03
298.18 K, x1 = 0.7043	–	931.29
298.19 K, x1 = 0.6048	–	942.98
303.11 K, x1 = 1	–	934.52
303.13 K, x1 = 0.1062	–	1062.1
303.13 K, x1 = 0.2032	–	1026.6
303.13 K, x1 = 0.304	–	994.46
303.13 K, x1 = 0.9019	–	918.63
303.14 K, x1 = 0.6023	1420.11	–
303.14 K, x1 = 0.8031	–	913
303.15 K, x1 = 0.1019	765.35	–
303.15 K, x1 = 0.1838	845.79	–
303.15 K, x1 = 0.2536	920.67	–
303.15 K, x1 = 0.3055	980.85	–
303.15 K, x1 = 0.405	–	966.75
303.15 K, x1 = 0.4064	1110.22	–
303.15 K, x1 = 0.4998	–	945.56
303.15 K, x1 = 0.5029	1251.79	–
303.15 K, x1 = 0.6525	1515.27	–
303.15 K, x1 = 0.7016	1616.48	–
303.15 K, x1 = 0.7043	–	916.56
303.15 K, x1 = 0.8003	1847.66	–
303.15 K, x1 = 0.8961	2114.87	–
303.15 K, x1 = 1	2469.88	–
303.17 K, x1 = 0.6048	–	927.45
308.1 K, x1 = 0.2032	–	1007.5
308.1 K, x1 = 1	–	921.89
308.11 K, x1 = 0.9019	–	905.33
308.12 K, x1 = 0.1062	–	1041.9
308.12 K, x1 = 0.304	–	976.3
308.12 K, x1 = 0.4998	–	929.18
308.13 K, x1 = 0.405	–	949.39
308.13 K, x1 = 0.8031	–	899.01
308.14 K, x1 = 0.6048	–	911.94
308.14 K, x1 = 0.7043	–	901.84
308.15 K, x1 = 0.1019	760.52	–
308.15 K, x1 = 0.1838	840.49	–
308.15 K, x1 = 0.2536	914.94	–
308.15 K, x1 = 0.3055	974.78	–
308.15 K, x1 = 0.4064	1103.44	–
308.15 K, x1 = 0.5029	1244.25	–
308.15 K, x1 = 0.6023	1411.72	–
308.15 K, x1 = 0.6525	1506.41	–
308.15 K, x1 = 0.7016	1607.12	–
308.15 K, x1 = 0.8003	1837.22	–
308.15 K, x1 = 0.8961	2103.24	–
308.15 K, x1 = 1	2456.76	–
313.14 K, x1 = 0.1019	755.67	–
313.14 K, x1 = 0.5029	1236.67	–
313.14 K, x1 = 0.6525	1497.49	–
313.15 K, x1 = 0.1838	835.16	–
313.15 K, x1 = 0.2536	909.16	–
313.15 K, x1 = 0.3055	968.68	–
313.15 K, x1 = 0.4064	1096.62	–
313.15 K, x1 = 0.6023	1403.28	–
313.15 K, x1 = 0.7016	1597.72	–
313.15 K, x1 = 0.8003	1826.75	–
313.15 K, x1 = 0.8961	2091.58	–
313.15 K, x1 = 1	2443.59	–
313.27 K, x1 = 1	–	908.83
313.28 K, x1 = 0.2032	–	987.55
313.28 K, x1 = 0.9019	–	891.54
313.29 K, x1 = 0.1062	–	1021
313.3 K, x1 = 0.304	–	957.58
313.31 K, x1 = 0.405	–	931.52
313.31 K, x1 = 0.4998	–	912.23
313.31 K, x1 = 0.7043	–	886.55
313.31 K, x1 = 0.8031	–	884.49
313.32 K, x1 = 0.6048	–	895.85
318.15 K, x1 = 0.1019	750.77	–
318.15 K, x1 = 0.1838	829.78	–
318.15 K, x1 = 0.2536	903.35	–
318.15 K, x1 = 0.3055	962.53	–
318.15 K, x1 = 0.4064	1089.75	–
318.15 K, x1 = 0.5029	1229.04	–
318.15 K, x1 = 0.6023	1394.79	–
318.15 K, x1 = 0.6525	1488.53	–
318.15 K, x1 = 0.7016	1588.27	–
318.15 K, x1 = 0.8003	1816.27	–
318.15 K, x1 = 0.8961	2079.95	–
318.15 K, x1 = 1	2430.37	–
